Biological target: Casein kinase II (Homo sapiens, UniProt P19784+P67870+P68400)
Experiment: Inhibition of CK2
Type: protein-complex assay

Chain of Casein kinase II (P67870 whole entry): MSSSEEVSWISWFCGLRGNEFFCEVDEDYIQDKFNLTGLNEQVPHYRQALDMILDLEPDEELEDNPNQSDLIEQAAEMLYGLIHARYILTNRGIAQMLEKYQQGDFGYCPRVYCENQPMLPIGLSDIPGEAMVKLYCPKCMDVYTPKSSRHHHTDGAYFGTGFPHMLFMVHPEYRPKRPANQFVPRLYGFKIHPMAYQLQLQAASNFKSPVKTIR
Chain of Casein kinase II (P68400 whole entry): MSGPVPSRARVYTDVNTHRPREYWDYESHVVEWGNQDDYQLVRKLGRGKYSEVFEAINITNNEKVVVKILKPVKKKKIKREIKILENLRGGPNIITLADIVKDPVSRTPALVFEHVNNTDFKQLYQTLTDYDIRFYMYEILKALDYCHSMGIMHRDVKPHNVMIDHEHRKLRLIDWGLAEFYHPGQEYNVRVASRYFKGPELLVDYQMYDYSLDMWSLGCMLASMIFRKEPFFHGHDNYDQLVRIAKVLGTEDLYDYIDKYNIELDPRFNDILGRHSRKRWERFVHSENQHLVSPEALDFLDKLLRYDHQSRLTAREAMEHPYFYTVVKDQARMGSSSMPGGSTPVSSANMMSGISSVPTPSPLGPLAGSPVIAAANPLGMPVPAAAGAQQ
Chain of Casein kinase II (P19784 whole entry): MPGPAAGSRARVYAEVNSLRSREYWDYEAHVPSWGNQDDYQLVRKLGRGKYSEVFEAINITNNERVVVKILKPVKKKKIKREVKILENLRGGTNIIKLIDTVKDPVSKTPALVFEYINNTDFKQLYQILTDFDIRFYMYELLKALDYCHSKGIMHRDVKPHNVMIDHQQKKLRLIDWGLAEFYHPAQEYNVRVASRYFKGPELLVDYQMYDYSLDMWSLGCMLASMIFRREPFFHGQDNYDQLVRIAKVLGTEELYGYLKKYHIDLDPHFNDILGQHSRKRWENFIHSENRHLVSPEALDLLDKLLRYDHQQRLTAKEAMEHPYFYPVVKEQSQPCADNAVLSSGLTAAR

| IC50 [nM] | Ki [nM] | Structure (SMILES) |
| --- | --- | --- |
| 390 | 200 | Cn1c(=O)[nH]c2c(Br)c(Br)c(Br)c(Br)c21 |
| 270 | 130 | OCCNc1nc2c(Br)c(Br)c(Br)c(Br)c2[nH]1 |
| 150 | 140 | OCC(O)CSc1nc2c(Br)c(Br)c(Br)c(Br)c2[nH]1 (stereo unspecified) |
| 130 | 200 | CN(C)c1nc2c(Br)c(Br)c(Br)c(Br)c2n1C |
| > 40000 | – | CCOc1nc2c(Br)c(Br)c(Br)c(Br)c2n1C |
| 360 | 150 | O=c1[nH]c2c(Br)c(Br)c(Br)c(Br)c2[nH]1 |
| 250 | 70 | CSc1nc2c(Br)c(Br)c(Br)c(Br)c2[nH]1 |
| 250 | 180 | O=C(O)CSc1nc2c(Br)c(Br)c(Br)c(Br)c2[nH]1 |
| 430 | 540 | Cn1c(Br)nc2c(Br)c(Br)c(Br)c(Br)c21 |
| 20400 | – | CC(C)Oc1nc2c(Br)c(Br)c(Br)c(Br)c2n1C |
| 1550 | – | CCOC(=O)CSc1nc2c(Br)c(Br)c(Br)c(Br)c2[nH]1 |
| 250 | 160 | CN(C)CCNc1nc2c(Br)c(Br)c(Br)c(Br)c2[nH]1 |

Reference: ChEMBL document CHEMBL1149250, “Optimization of protein kinase CK2 inhibitors derived from 4,5,6,7-tetrabromobenzimidazole” (J Med Chem, 2004)
